Data on eleven molecules can be found in PubChem BioAssay (NCI).

Several values for one entry are separate records, joined by “and”; a condition that tells them apart may be missing. Identical values can stand only once.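 Assay format: 96-well plates, 48-hour exposure. Abbreviation: GI50, concentration required for 50% inhibition of growth. At the TGI there is no net growth.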 A value given as a limit tells only on which side of the number the result lay.

Experiment in all cases: NCI-60 cell line screen, 48 h
Test [1] deals with ACHN renal.
In test [2] the test system is HL-60(TB) leukemia.
Test [3] deals with OVCAR-8 ovarian.
In test [4] the test system is TK-10 renal.
The subject of test [5] is HCT-15 colon.
The test system of test [6] is 786-0 renal.
For test [7], the system named is UACC-257 melanoma.
Test [8] relates to HS 578T breast.
The subject of test [9] is NCI-H460 lung.
The subject of test [10] is CAKI-1 renal.

In the case of `COc1ccc(-c2cc(-c3cccn3C)c(C#N)c(N)n2)cc1OC`, the GI50 in test [1] was greater than 100000 nM; in test [2], 19.6 µM; in test [3], greater than 100 µM; in test [4] it was greater than 100 µM; in test [5], greater than 100 µM; in [6], greater than 100 µM. The GI50 in test [7], in test [8], in [9] and in test [10] was greater than 100000 nM in each case. Moreover, the TGI in test [1], in test [2], in test [3], in [4], in test [5] and in test [6] was greater than 100 µM each time. Moreover, the TGI in [7], in test [8], in test [9] and in [10] was greater than 100 µM each time.

As to `Cc1[nH]n(-c2cccc(Cl)c2)c(=O)c1/C=C1\C=Nc2ccc(Br)cc21`, the GI50 in test [1] was 2460 nM; in [2], 4.02 µM; in test [3], 3.52 µM; in test [4], 2.6 µM; in test [5], 5.25 µM; in [6], 2.14 µM. The GI50 was 85700 nM in [7], 2460 nM in [8], 1780 nM in test [9] and 2430 nM in [10]. In addition, the TGI in [1] is 5.9 µM; in [2], 33.6 µM; in test [3], 13.8 µM; in [4], 5.18 µM; in [5], greater than 100 µM; in test [6] it was 4.68 µM. Besides, the TGI was greater than 100 µM in test [7], 8.04 µM in test [8], 3.53 µM in test [9] and 13.5 µM in test [10].

Take `O=C(Nc1cccc(Cl)c1Cl)c1cccc(NC2=C(Cl)C(=O)N(Cc3ccccc3)C2=O)c1`: the GI50 in test [1] is 54700 nM; in test [2] it was 10.5 µM; in [3], 9.47 µM; in [4] it was greater than 100 µM; in [5], 52.1 µM; in [6] it was 49.8 µM. Besides, the GI50 is 23300 nM in test [7], 28700 nM in test [8], 22400 nM in [9] and 33200 nM in test [10]. The TGI in [1] is greater than 100 µM; in test [2], 30.7 µM; in [3], 42 µM; in test [4] it was greater than 100 µM; in test [5] it was greater than 100 µM; in [6], greater than 100 µM. Also, the TGI was 72.3 µM in [7], greater than 100 µM in test [8], 94.7 µM in test [9] and greater than 100 µM in test [10].

On to `CC(=O)Oc1ccc(Nc2c3ccccc3nc3ccccc23)cc1`, for which the GI50 in [1] was 382 nM; in [2], 0.705 µM; in test [3], 1.07 µM; in test [4] it was 1.68 µM; in test [5] it was 1.13 µM; in test [6], 1.89 µM. The GI50 in test [7] was 1510 nM; in test [8], 435 nM; in test [9], 295 nM; in test [10] it was 1210 nM. Moreover, the TGI in test [1] is 2.02 µM; in test [2] it was 6.14 µM; in [3] it was 4.14 µM; in test [4], 6.22 µM; in [5] it was 3.4 µM; in test [6], 6.4 µM. Also, the TGI turned out to be 4.31 µM in [7], 3.19 µM in test [8], 1.3 µM in test [9] and 12.7 µM in test [10].

In the case of `CN1CCc2c(Sc3ccc(C(=O)NO)cc3)c3ccccc3n2C1`, the GI50 in test [1] was 3040 nM; in [2], 2.95 µM; in test [3] it was 1.69 µM; in test [4], 2.62 µM; in [5], 3.62 µM; in test [6], 4.12 µM. The GI50 in test [7] is 1750 nM; in [8] it was 2640 nM; in test [9], 2340 nM; in test [10], 3950 nM. The TGI worked out at 12.6 µM in test [1]; 8.09 µM in test [2]; 5.42 µM in test [3]; 8.19 µM in test [4]; 13.4 µM in test [5]; 15.3 µM in test [6]. The TGI in [7] was 9.1 µM; in [8], 27 µM; in test [9], 7.73 µM; in test [10], 14.5 µM.

Take `COc1ccc(/C=c2/sc3n(c2=O)C(c2ccc(OC)c(OC)c2)C2=C(N=3)c3cc(F)ccc3OC2)cc1` (stereo not drawn): the GI50 is 19300 nM in test [1]; 33.1 µM in test [2]; 40.2 µM in [3]; 29 µM in [4]; 22.2 µM in test [5]; 42.1 µM in test [6]. In addition, the GI50 was 35000 nM in [7], 27000 nM in test [8], 19300 nM in test [9] and 10100 nM in test [10]. Further, the TGI in test [1] was 65.7 µM; in test [2], greater than 94.6 µM; in [3], greater than 100 µM; in test [4], greater than 87.6 µM; in test [5], greater than 83 µM; in test [6] it was greater than 100 µM. Moreover, the TGI was greater than 88.8 µM in test [7], greater than 87.5 µM in test [8], greater than 100 µM in test [9] and 41.7 µM in [10].

Consider `COc1cc2c(cc1OC)C13CCN4CC5=CCOC6CC(=O)N2C1C6C5CC43O` (stereo not drawn), for which the TGI in test [1], in [2], in test [3], in test [4], in [5] and in test [6] was greater than 100 µM in each case. The TGI in test [7], in test [8], in [9] and in [10] was greater than 100 µM in each case.

As to `O=C(O)c1cc(O)c2c(c1)C(C1c3cc(C(=O)O)cc(O)c3C(=O)c3c(OC4OC(CO)C(O)C(O)C4O)cccc31)c1cccc(OC3OC(CO)C(O)C(O)C3O)c1C2=O` (stereo not drawn), the GI50 in [1] is greater than 100000 nM; in [2], greater than 100 µM; in test [3], greater than 100 µM; in [4] it was greater than 100 µM; in [5], greater than 100 µM; in test [6], greater than 100 µM. Also, the GI50 in test [7], in [8], in test [9] and in test [10] was greater than 100000 nM throughout. Also, the TGI in test [1], in [2], in [3], in [4], in [5] and in [6] was greater than 100 µM each time. Besides, the TGI in test [7], in [8], in test [9] and in test [10] was greater than 100 µM each time.

On to `N#CC1(C2SCCS2=O)C2=C(C(=O)c3ccccc3C2=O)N2CCCC21` (stereo not drawn), for which the TGI in [1] came out at 16.2 µM; in [2], 6.79 µM; in test [3], 7.83 µM; in [4], 43.7 µM; in [5], 6.63 µM; in test [6] it was 18.7 µM. The TGI in [7] came to 2.99 µM; in test [8], 12.8 µM; in test [9], 11.8 µM; in test [10], 15 µM.

For the molecule `O=C(Nc1cccc(Cl)c1)c1cc2ccccc2cc1O`, the GI50 in test [1] is 2550 nM and 609 nM; in test [2], 3.16 µM and 1.61 µM; in test [3], 2.94 µM and 3.39 µM; in [4], 5.58 µM and 5.82 µM; in [5], 2.38 µM and 2.36 µM; in test [6], 3.6 µM and 3.12 µM. Besides, the GI50 in test [7] was 1030 nM and 2260 nM; in test [8] it was 2120 nM and 3420 nM; in test [9] it was 2470 nM and 2480 nM; in test [10], 2100 nM and 1510 nM. Also, the TGI in [1] was greater than 100 µM; in test [3], greater than 100 µM; in [4] it was greater than 100 µM; in test [5], greater than 100 µM; in test [6] it was greater than 100 µM; in [7], 7.31 µM and 6.11 µM. Also, the TGI in test [9] and in test [10] was greater than 100 µM each time.

With `O=C(CN(C1CCCCC1)C1CCCCC1)Nc1ccc(S(=O)(=O)c2ccc(NC(=O)CN(C3CCCCC3)C3CCCCC3)cc2)cc1`, the GI50 is 1170 nM in [1]; 1.02 µM in [2]; 0.701 µM in test [3]; 2.24 µM in test [4]; 0.181 µM in [5]; 0.941 µM in [6]. Besides, the GI50 in [7] is 1370 nM; in test [8], 1030 nM; in [9], 382 nM; in test [10], 1140 nM. The TGI was 2.4 µM in test [1]; 3.23 µM in [2]; 3.71 µM in test [3]; 6.03 µM in [4]; 0.568 µM in [5]; 2.39 µM in test [6]. Moreover, the TGI in [7] was 3.66 µM; in test [8], 6.9 µM; in [9] it was 1.63 µM; in test [10], 2.35 µM.
